This is an account of results in patent US3975538A, “Miticidally active compositions” (priority 1974, dated 1976).

In assay [1] the test system is two-spotted spider mite, Tetranychus urticae. Nature of the assay: Experiment 2 miticidal test (two-spotted spider mite on pea seedling). The conditions noted are these: 48 h, female adults, 500 ppm in water, 20 cc spray, 2 days at 28°C, read-out: Evaluation (mortality of mites). The class given is in vivo. The protocol:
(§1) Criteria for evaluating effectiveness:
After spraying the pots were placed in a air-conditioned greenhouse (28°C) for 2 days.

For assay [2], the system named is Kanzawa spider mite, Tetranychus kanzawai. Briefly: Experiment 3 miticidal test (Kanzawa spider mite on pea seedling). Type of assay: in vivo. The conditions noted are these: female adults, 500 ppm in water, 20 cc spray, three repeats, read-out: Evaluation (mortality of mites).
From the text: as §1
In this experiment, one day after approximately 50 female adults of the Kanzawa spider mite, Tetranychus kanzawai, were placed on the leaves of a seedling of the pea plant (5 days after germination), growing in pots (9 cm in diameter), the plant was sprayed with emulsion of the compound of Formula (I), diluted to 500 ppm in water. […] The test was repeated three times.

The test system of the next assay is eggs of citrus red mite. Briefly: Experiment 4 ovicidal test (citrus red mite eggs on trifoliate orange). Type of assay: in vivo, Panonychus citri. Conditions: 500 ppm in water, 20 cc spray, 7 days at 28°C, three repeats. As to the method:
as §1
In this experiment, 20 female adults of the citrus red mite were released on the leaves of the potted trifoliate orange (15 cm in height). The pots were then placed in a air-conditioned greenhouse (28°C) for 2 days. Then the adults were removed from the plant and the eggs laid on the leaves were subjected to the ovicidal test. The number of the eggs on each plant was counted prior to the chemical application. […] 20 cc of each compound was sprayed on one of the plants. After spraying, the pots were returned to the air-conditioned greenhouse and kept there for 7 days. Then, by microscopic inspection, the numbers of unhatched eggs, the larvae which died after hatching, and the surviving larvae, respectively, on each plant were counted.

The subject of assay [3] is citrus red mite, Panonychus citri. Nature of the assay: Experiment 1 miticidal test (citrus red mite on potted lemon tree). Conditions: 240 h, larvae and adults, 200 ppm in water, 20 cc spray, 10 days at 28°C, read-out: Evaluation (mortality of mites and eggs). Type of assay: in vivo. As to the method: In this experiment, approximately 50 larvae and adults of the citrus red mite, Panonychus citri were first released on the leaves of a young lemon tree, with about 10 leaves, growing in a pot (9 cm in diameter). […] Two days later, each potted plant was sprayed with 20 cc of one of these preparations with a spray gun (under 1 kg/cm^2 pressure, 80 cm distance from the plant) in a spray chamber. After the spraying, the pots were placed in a air-conditioned greenhouse (28°C) for 10 days, the number of mites and eggs surviving on the leaves counted.

The subject of assay [4] is citrus red mite which show resistance to citrazon. Nature of the assay: Experiment 5 test on citrazon-resistant citrus red mite. Type of assay: in vivo. The conditions noted are these: Panonychus citri, 48 h, read-out: Death rate. As to the method: 100 female adults of citrus red mite which show resistance to citrazon were released on the leaves of the potted trifoliate orange (The pot: 9 cm in diameter). 20 cc each of the emulsions 100 prepared in Example 4, of compound No.4 and citrazon (mentioned before) for comparison of different concentrations was sprayed on one of the pots. After spraying the pots were kept in a kasten for 2 days and from the number of the surviving mites the death rates were calculated.

SMILES strings stand for the structures.

For `CCOC(=NOC(=O)c1ccccc1)c1c(OC)ccc2ccccc12` [Control No. 1, ethyl O-benzoyl-2-methoxy-1-naphthohydroxamate], the mortality at 500 ppm in assay [1] and in assay [2] was under 49% each time. Further, the “Evaluation (ovicidal effectiveness)” value with eggs of citrus red mite is “- (49 % or less)”. For the same compound, the mortality at 200 ppm in assay [3] is under 49%.

As for `CCOC(=O)ON=C(OCC)c1c(OC)ccc2ccccc12` [compound 2, ethyl O-ethoxycarbonyl-2-methoxy-1-naphthohydroxamate], in the assay on eggs of citrus red mite, the “Evaluation (ovicidal effectiveness)” value is given as “++ (90 - 99 %)”. In addition, the mortality at 200 ppm in assay [3] fell in the range of 90 to 99%.

For `CCOC(=NOC(=O)c1ccc(C)cc1)c1c(OC)ccc2ccccc12` [Control No. 2, ethyl 0-(4-methylbenzoyl)-2-methoxy-1-naphthohydroxamate], the mortality at 500 ppm in assay [1] and in assay [2] was under 49% each time. Moreover, the “Evaluation (ovicidal effectiveness)” value in the assay on eggs of citrus red mite is given as “- (49 % or less)”. Moreover, the mortality at 200 ppm in assay [3] is under 49%.

In the case of `CCOC(=NOC(=O)SC(C)C)c1c(OC)ccc2ccccc12` [compound 13, ethyl O-isopropylthiocarbonyl-2-methoxy-1-naphthohydroxamate], the mortality at 200 ppm in assay [3] is 100%.

Take `CCOC(=NOC(=O)c1ccccc1)c1c(OC)ccc(Cl)c1OC` [Citrazon, ethyl O-benzoyl-3-chloro-2,6-dimethoxybenzohydroxamate]: in assay [4], the mortality at 12.5 ppm worked out at 19.5%, the mortality at 25 ppm was 25.8%, the mortality at 50 ppm is 40.6% and the mortality at 100 ppm was 40.5%. In assay [4], the mortality at 200 ppm came to 43.5% and the mortality at 400 ppm is 68%.
